From patent US10206394B2, “Herbicidal compounds” (Syngenta Participations AG, priority 2014, dated 2019)
Read-outs that look alike come from different tables or passages of the source.

Assays:
Test in all cases: Glasshouse assay for herbicidal activity (pre- and post-emergence), percentage phytotoxicity
Type in all cases: in vivo
Avena fatua (AVEFA) = conditions: Avena fatua
Procedure, shortened: (§1)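 Percent injury was estimated by eye on a scale where 0% means no damage and 100% complete damage. Ratings came 15 DAA post-emergence and 20 DAA pre-emergence, with plants held under 16 h light and 65% humidity at 24/18 °C or 20/16 °C day/night.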

[1] = system: Echinochloa crus-galli (ECHCG); conditions: Echinochloa crus-galli
Procedure, shortened: as §1

[2] = system: Alopecurus myosuroides (ALOMY); conditions: Alopecurus myosuroides
Procedure, shortened: as §1

Lolium perenne (LOLPE) = conditions: Lolium perenne
Procedure, shortened: as §1

[3] = post-emergence, 360 h, Rate 250 g/ha, post-emergence, assessed visually 15 DAA, 100%=total damage, 0%=no damage, read-out: Post-emergence herbicidal activity (percentage phytotoxicity) AVEFA POST
[4] = pre-emergence, 480 h, Rate 250 g/ha, pre-emergence, assessed visually 20 DAA, 100%=total damage, 0%=no damage, read-out: Pre-emergence herbicidal activity (percentage phytotoxicity) AVEFA PRE
[5] = post-emergence, 360 h, Rate 250 g/ha, post-emergence, assessed visually 15 DAA, 100%=total damage, 0%=no damage, read-out: Post-emergence herbicidal activity (percentage phytotoxicity) ECHCG POST
[6] = pre-emergence, 480 h, Rate 250 g/ha, pre-emergence, assessed visually 20 DAA, 100%=total damage, 0%=no damage, read-out: Pre-emergence herbicidal activity (percentage phytotoxicity) ECHCG PRE
[7] = post-emergence, 360 h, Rate 250 g/ha, post-emergence, assessed visually 15 DAA, 100%=total damage, 0%=no damage, read-out: Post-emergence herbicidal activity (percentage phytotoxicity) ALOMY POST
[8] = pre-emergence, 480 h, Rate 250 g/ha, pre-emergence, assessed visually 20 DAA, 100%=total damage, 0%=no damage, read-out: Pre-emergence herbicidal activity (percentage phytotoxicity) ALOMY PRE
[9] = post-emergence, 360 h, Rate 250 g/ha, post-emergence, assessed visually 15 DAA, 100%=total damage, 0%=no damage, read-out: Post-emergence herbicidal activity (percentage phytotoxicity) LOLPE POST
[10] = pre-emergence, 480 h, Rate 250 g/ha, pre-emergence, assessed visually 20 DAA, 100%=total damage, 0%=no damage, read-out: Pre-emergence herbicidal activity (percentage phytotoxicity) LOLPE PRE
[11] = post-emergence, 360 h, 250 g/ha, post-emergence, 15 DAA, visual assessment (100%=total damage, 0%=no damage), read-out: Post-emergence herbicidal activity (percentage phytotoxicity) AVEFA POST
[12] = pre-emergence, 480 h, 250 g/ha, pre-emergence, 20 DAA, visual assessment (100%=total damage, 0%=no damage), read-out: Pre-emergence herbicidal activity (percentage phytotoxicity) AVEFA PRE
[13] = post-emergence, 360 h, 250 g/ha, post-emergence, 15 DAA, visual assessment (100%=total damage, 0%=no damage), read-out: Post-emergence herbicidal activity (percentage phytotoxicity) ECHCG POST
[14] = pre-emergence, 480 h, 250 g/ha, pre-emergence, 20 DAA, visual assessment (100%=total damage, 0%=no damage), read-out: Pre-emergence herbicidal activity (percentage phytotoxicity) ECHCG PRE
[15] = post-emergence, 360 h, 250 g/ha, post-emergence, 15 DAA, visual assessment (100%=total damage, 0%=no damage), read-out: Post-emergence herbicidal activity (percentage phytotoxicity) ALOMY POST
[16] = pre-emergence, 480 h, 250 g/ha, pre-emergence, 20 DAA, visual assessment (100%=total damage, 0%=no damage), read-out: Pre-emergence herbicidal activity (percentage phytotoxicity) ALOMY PRE
[17] = post-emergence, 360 h, 250 g/ha, post-emergence, 15 DAA, visual assessment (100%=total damage, 0%=no damage), read-out: Post-emergence herbicidal activity (percentage phytotoxicity) LOLPE POST
[18] = pre-emergence, 480 h, 250 g/ha, pre-emergence, 20 DAA, visual assessment (100%=total damage, 0%=no damage), read-out: Pre-emergence herbicidal activity (percentage phytotoxicity) LOLPE PRE

| SMILES | pest or weed control at 250 g/ha (Avena fatua (AVEFA); [3]) | pest or weed control at 250 g/ha (Avena fatua (AVEFA); [4]) | pest or weed control at 250 g/ha [1, 5] | pest or weed control at 250 g/ha [1, 6] | pest or weed control at 250 g/ha [2, 7] | pest or weed control at 250 g/ha [2, 8] | pest or weed control at 250 g/ha (Lolium perenne (LOLPE); [9]) | pest or weed control at 250 g/ha (Lolium perenne (LOLPE); [10]) | pest or weed control at 250 g/ha (Avena fatua (AVEFA); [11]) | pest or weed control at 250 g/ha (Avena fatua (AVEFA); [12]) | pest or weed control at 250 g/ha [1, 13] | pest or weed control at 250 g/ha [1, 14] | pest or weed control at 250 g/ha [2, 15] | pest or weed control at 250 g/ha [2, 16] | pest or weed control at 250 g/ha (Lolium perenne (LOLPE); [17]) | pest or weed control at 250 g/ha (Lolium perenne (LOLPE); [18]) | also measured |
| --- | --- | --- | --- | --- | --- | --- | --- | --- | --- | --- | --- | --- | --- | --- | --- | --- | --- |
| Cc1cc(-c2ccc(Cl)cn2)cc(C)c1C1C(=O)CC(CC(=O)NCc2cccc(Br)c2)C1=O (stereo not drawn) [Compound B359] | – | – | – | – | – | – | – | – | – | – | – | – | – | – | – | – | pest or weed control at 250 g/ha (Avena fatua (AVEFA); post-emergence, 360 h, Rate 250 g/ha, post-emergence, visual assessment 15 DAA, 100%=total damage, 0%=no damage, read-out: Post-emergence herbicidal activity (percentage phytotoxicity) AVEFA POST): 100%; pest or weed control at 250 g/ha (Avena fatua (AVEFA); pre-emergence, 480 h, Rate 250 g/ha, pre-emergence, visual assessment 20 DAA, 100%=total damage, 0%=no damage, read-out: Pre-emergence herbicidal activity (percentage phytotoxicity) AVEFA PRE): 70%; pest or weed control at 250 g/ha ([1]; post-emergence, 360 h, Rate 250 g/ha, post-emergence, visual assessment 15 DAA, 100%=total damage, 0%=no damage, read-out: Post-emergence herbicidal activity (percentage phytotoxicity) ECHCG POST): 100%; pest or weed control at 250 g/ha ([1]; pre-emergence, 480 h, Rate 250 g/ha, pre-emergence, visual assessment 20 DAA, 100%=total damage, 0%=no damage, read-out: Pre-emergence herbicidal activity (percentage phytotoxicity) ECHCG PRE): 80%; pest or weed control at 250 g/ha ([2]; post-emergence, 360 h, Rate 250 g/ha, post-emergence, visual assessment 15 DAA, 100%=total damage, 0%=no damage, read-out: Post-emergence herbicidal activity (percentage phytotoxicity) ALOMY POST): 90%; pest or weed control at 250 g/ha ([2]; pre-emergence, 480 h, Rate 250 g/ha, pre-emergence, visual assessment 20 DAA, 100%=total damage, 0%=no damage, read-out: Pre-emergence herbicidal activity (percentage phytotoxicity) ALOMY PRE): 90%; pest or weed control at 250 g/ha (Lolium perenne (LOLPE); post-emergence, 360 h, Rate 250 g/ha, post-emergence, visual assessment 15 DAA, 100%=total damage, 0%=no damage, read-out: Post-emergence herbicidal activity (percentage phytotoxicity) LOLPE POST): 90%; pest or weed control at 250 g/ha (Lolium perenne (LOLPE); pre-emergence, 480 h, Rate 250 g/ha, pre-emergence, visual assessment 20 DAA, 100%=total damage, 0%=no damage, read-out: Pre-emergence herbicidal activity (percentage phytotoxicity) LOLPE PRE): 90% |
| CC#Cc1cc(C)c(C2C(=O)CC(CC(=O)NCCCC)C2=O)c(C)c1 (stereo not drawn) [Compound A29] | 100% | 90% | 100% | 100% | 100% | 100% | 100% | 100% | – | – | – | – | – | – | – | – | – |
| CC#Cc1cc(C)c(C2C(=O)CC(CC(=O)NC3CC3)C2=O)c(CC)c1 (stereo not drawn) [Compound A66] | 100% | 100% | 100% | 100% | 90% | 100% | 100% | 100% | – | – | – | – | – | – | – | – | – |
| Cc1cc(-c2ncc(F)cn2)cc(C)c1C1C(=O)CC(CC(=O)N(C)C(C)(C)C)C1=O (stereo not drawn) [Compound B331] | – | – | – | – | – | – | – | – | – | – | – | – | – | – | – | – | pest or weed control at 250 g/ha (Avena fatua (AVEFA); post-emergence, 360 h, POST-emergence, rate 250 g/ha, visual score 15 DAA (100%=total damage, 0%=no damage), read-out: Post-emergence herbicidal activity (percentage phytotoxicity) AVEFA POST): 100%; pest or weed control at 250 g/ha (Avena fatua (AVEFA); pre-emergence, 480 h, PRE-emergence, rate 250 g/ha, visual score 20 DAA (100%=total damage, 0%=no damage), read-out: Pre-emergence herbicidal activity (percentage phytotoxicity) AVEFA PRE): 90%; pest or weed control at 250 g/ha ([1]; post-emergence, 360 h, POST-emergence, rate 250 g/ha, visual score 15 DAA (100%=total damage, 0%=no damage), read-out: Post-emergence herbicidal activity (percentage phytotoxicity) ECHCG POST): 100%; pest or weed control at 250 g/ha ([1]; pre-emergence, 480 h, PRE-emergence, rate 250 g/ha, visual score 20 DAA (100%=total damage, 0%=no damage), read-out: Pre-emergence herbicidal activity (percentage phytotoxicity) ECHCG PRE): 100%; pest or weed control at 250 g/ha ([2]; post-emergence, 360 h, POST-emergence, rate 250 g/ha, visual score 15 DAA (100%=total damage, 0%=no damage), read-out: Post-emergence herbicidal activity (percentage phytotoxicity) ALOMY POST): 90%; pest or weed control at 250 g/ha ([2]; pre-emergence, 480 h, PRE-emergence, rate 250 g/ha, visual score 20 DAA (100%=total damage, 0%=no damage), read-out: Pre-emergence herbicidal activity (percentage phytotoxicity) ALOMY PRE): 100%; pest or weed control at 250 g/ha (Lolium perenne (LOLPE); post-emergence, 360 h, POST-emergence, rate 250 g/ha, visual score 15 DAA (100%=total damage, 0%=no damage), read-out: Post-emergence herbicidal activity (percentage phytotoxicity) LOLPE POST): 100%; pest or weed control at 250 g/ha (Lolium perenne (LOLPE); pre-emergence, 480 h, PRE-emergence, rate 250 g/ha, visual score 20 DAA (100%=total damage, 0%=no damage), read-out: Pre-emergence herbicidal activity (percentage phytotoxicity) LOLPE PRE): 100% |
| Cc1cc(Br)cc(C)c1C1C(=O)CC(CC(=O)NCc2cccc(F)c2)C1=O (stereo not drawn) [Compound B130] | – | – | – | – | – | – | – | – | 90% | 40% | 90% | 70% | 90% | 80% | 100% | 80% | – |
| Cc1cc(C)c(C2C(=O)CC(CC(=O)NC(C)(C)c3ccccc3)C2=O)c(C)c1 (stereo not drawn) [Compound B29] | – | – | – | – | – | – | – | – | 60% | 10% | 70% | 80% | 70% | 30% | 70% | 80% | – |
